Source: patent US8044094B2, “Agents for preventing and treating disorders connected to impaired neurotransmission” (DSM IP Assets B.V., priority 2004, dated 2011)

Columns and labels:
[1] = molecular target: T1, human serotonin re-uptake transporter (hSERT) (Homo sapiens, UniProt P31645); assay: Serotonin uptake inhibition in HEK-293 cells stably expressing hSERT; assay type: cell-based
Procedure: HEK-293 cells stably expressing the human serotonin re-uptake transporter (hSERT) were obtained from R. Blakely, Vanderbilt University, USA. The cells were routinely grown in Dulbeco's Modified Eagles Medium, purchased from Bioconcept, Allschwil, Switzerland containing 10% fetal calf serum, penicillin, streptomycin, L-glutamine and the antibiotic G418 and passaged by trypsinisation. 1 day prior to the assay cells were seeded in the above mentioned medium. Immediately prior to the assay the medium was replaced by Krebs Ringers bicarbonate buffer, purchased from Sigma Chemicals Ltd., supplemented with 35 μM pargyline, 2.2 mM CaCl2, 1 mM ascorbic acid and 5 mM N-2-hydroxyethylpiperazine-N′-2-ethanesulfonic acid (buffer called “Hepes”). Serotonin uptake into the cells was determined by addition of radio-labeled (3H) serotonin (Amersham Biosciences GE Healthcare, Slough, UK) to a concentration of 20 nM, and incubation for 30 minutes at room temperature. Following removal of unincorporated label by gentle washing three times with the above buffer, incorporated serotonin was quantified by liquid scintillation counting.
(§1) The effect of the coumarin ethers of formula I on the serotonin uptake and the citalopram binding was determined by its inclusion in the assay at a range of concentrations between 0.03 and 100 μM for 10 minutes prior to and during the addition of (3H) serotonin/citalopram. Serotonin uptake via the transporter and citalopram binding were both inhibited by the coumarin ethers of formula I in a dose dependent manner. The calculated inhibition constants Ki, derived from the measured IC50 using the Cheng—Prusoff equation (Y. C. Cheng, W. H. Prusoff, Biochem. Pharmacol. 1973, 22, p. 3099-3108), for inhibition of serotonin uptake and citalopram binding by coumarin ethers of the formula I are shown in Table 1.

[2] = molecular target: T1, human serotonin re-uptake transporter (hSERT); assay: Labeled citalopram displacement from hSERT containing membranes (SPA); assay type: binding
Procedure: Membranes containing hSERT were prepared from the above cell line according to Galli et al, Journal of Experimental Biology 1995, 198, 2197-2212. 3 μg of membrane protein and 0.8 mg of wheat germ aglutinin coated SPA® (scintillation proximity assay) beads (Amersham Biosciences GE Healthcare, Slough, UK) per data point were mixed with radio-labeled (3H) citalopram (Amersham Biosciences GE Healthcare, Slough, UK) until a final concentration of 3.3 nM in 50 mM Tris-HCl, 300 mM NaCl (pH 7.4). After incubation for 18 hours at room temperature, the bound citalopram was quantified by liquid scintillation counting.
as §1

mice = assay: Marble burying test (anxiety like or obsessive compulsive behaviour); assay type: in vivo; details: for number of marbles covered by sawdust, mean ± s.e.m.: 25 marbles, 30-minute test
Procedure: The method applied here follows that described by Broekkamp et al. (1986). Mice (n=15 per treatment group) were individually placed in transparent plastic cages (33×21×18 cm) with 5 cm of sawdust on the floor and 25 marbles (diameter 1 cm) grouped in the centre of the cage. A second, up-turned, cage served as a lid. The number of marbles covered by sawdust (by at least two-thirds) was counted at the end of the 30-minute test period. Tests were performed by investigators blind to the drug treatment protocol.
Prior to testing, all test cages and marbles were “impregnated” by leaving 10 naive mice in each cage for 15 minutes.
7-Geranyl-oxycoumarin was evaluated at 3, 10 and 30 mg/kg, administered i.p. 30 minutes before the test, and compared with a vehicle control group. 7-Geranyl-oxycoumarin was dissolved in a saline solution containing 3 weight-% DMSO and 3 weight-% Tween® 80 (so called “vehicle”). To the control group the vehicle consisting of the saline solution containing 3 weight-% DMSO and 3 weight-% Tween® 80 was administered intraperitonally. Fluoxetine (32 mg/kg), administered under the same experimental conditions, was used as a reference substance.
Data were analysed by comparing treated groups with vehicle control using unpaired Student's t-tests.

[3] = transfected HEK-293 cells, Ki from IC50 by Cheng-Prusoff, 20 nM (3H) serotonin, read-out: Inhibition constant Ki for tritiated serotonin uptake
[4] = hSERT containing membranes, Ki from IC50 by Cheng-Prusoff, 3.3 nM (3H) citalopram, read-out: Inhibition constant Ki for tritiated citalopram displacement

T1 sequence (P31645 whole entry): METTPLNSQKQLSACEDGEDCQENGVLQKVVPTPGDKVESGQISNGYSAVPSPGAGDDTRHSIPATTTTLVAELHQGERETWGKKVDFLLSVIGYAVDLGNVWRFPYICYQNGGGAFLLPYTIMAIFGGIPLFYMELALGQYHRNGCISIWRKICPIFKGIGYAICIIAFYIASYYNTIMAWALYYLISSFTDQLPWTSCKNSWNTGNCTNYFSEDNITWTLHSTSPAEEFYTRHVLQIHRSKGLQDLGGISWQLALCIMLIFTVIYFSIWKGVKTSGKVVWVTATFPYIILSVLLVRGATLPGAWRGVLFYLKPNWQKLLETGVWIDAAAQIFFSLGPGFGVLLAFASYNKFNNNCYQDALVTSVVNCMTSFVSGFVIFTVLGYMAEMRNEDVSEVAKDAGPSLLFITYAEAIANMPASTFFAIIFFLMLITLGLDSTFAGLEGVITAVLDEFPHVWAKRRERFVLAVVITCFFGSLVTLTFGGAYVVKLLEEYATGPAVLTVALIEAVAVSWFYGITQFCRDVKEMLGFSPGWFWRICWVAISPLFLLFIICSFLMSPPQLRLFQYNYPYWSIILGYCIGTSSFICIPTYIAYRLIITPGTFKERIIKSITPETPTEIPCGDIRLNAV

`C/C(=C\COc1ccc2ccc(=O)oc2c1)C1=CC(=O)C(C)(C)O1` [Geiparvarin, geiparvarin] was tested, and the Ki [1] was 7 µM and the Ki [2] was 5.6 µM.
`C/C(=C\COc1ccc2ccc(=O)oc2c1)CCC(=O)C(C)(C)O` [6′-Dehydromarmin, 6′-dehydromarmin] showed a Ki [1, 3] of 12.1 µM and a Ki [2, 4] of 10.3 µM.
For `CC(C)=CCC/C(C)=C/COc1ccc2ccc(=O)oc2c1` [7-Geranyloxycoumarin, 7-geranyloxycoumarin], the Ki [1, 3] was 22.4 µM, the Ki [2, 4] was 24.2 µM and the “number of marbles covered by sawdust, % change from control” value (shortened to “number … % change from control”) (mice; 3 mg/kg i.p. −30 minutes, 3 mg/kg) was −27%. For the same molecule, the “number of marbles covered by sawdust, mean ± s.e.m.” value (“number … mean ± s.e.m.” below) (mice; 3 mg/kg i.p. −30 minutes) was 13.4 ± 2.0, the “number … % change from control” value (mice; 3 mg/kg i.p. −30 minutes, listed as 7-Geranyl-oxycoumauin, 3 mg/kg) was −27% and the “number … % change from control” value (mice; 10 mg/kg i.p. −30 minutes, 10 mg/kg) was −39%. The “number … mean ± s.e.m.” value (mice; 10 mg/kg i.p. −30 minutes) was 11.3 ± 2.4, the “number … % change from control” value (mice; 10 mg/kg i.p. −30 minutes, listed as 7-Geranyl-oxycoumauin, 10 mg/kg) was −39% and the “number … % change from control” value (mice; 30 mg/kg i.p. −30 minutes, 30 mg/kg) was −74%. The “number … mean ± s.e.m.” value (mice; 30 mg/kg i.p. −30 minutes) was 4.7 ± 1.5 and the “number … % change from control” value (mice; 30 mg/kg i.p. −30 minutes, listed as 7-Geranyl-oxycoumauin, 30 mg/kg) was −74%.
`CC1(C)C=Cc2cc3ccc(=O)oc3cc2O1` [Xanthyletin, xanthyletin] showed a Ki [1, 3] of 20.2 µM and a Ki [2, 4] of 11.9 µM.
With `CNCCC(Oc1ccc(C(F)(F)F)cc1)c1ccccc1` (stereo not drawn) [fluoxetine, reference compound] the “number … % change from control” value (mice; 32 mg/kg i.p. −30 min, 32 mg/kg) was −98%, the “number … mean ± s.e.m.” value (mice; 32 mg/kg i.p. −30 min) was 0.3 ± 0.2 and the “number … % change from control” value (mice; 32 mg/kg i.p. −30 min, listed as Fluoxetine, 32 mg/kg) was −98%.
`CC(=O)OC(C)(C)[C@@H]1Cc2c(ccc3ccc(=O)oc23)O1` [(S)—O-Acetylcolumbianetin] showed a Ki [1, 3] of 21.7 µM and a Ki [2, 4] of 11.6 µM.
`COc1cc2oc(=O)ccc2cc1CC=C(C)C` [Suberosin, suberosin] was tested, and the Ki [1, 3] was 9.8 µM and the Ki [2, 4] was 39.3 µM.
